How the values were obtained:
[1] = system: H358 cells (ATCC CRL-5807); experiment: Cell viability assay 1 (CellTiter-Glo), H358 cells; type: cell-based; details: Homo sapiens, NCI-H358, 48 h, first value of the cell, read-out: Cell Viability H358 (concentration that decreases cell viability by 50%)
In short: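 H358 cells were grown in RPMI-1640 with 10% FCS and 2 mM L-glutamine, plated at 5000 cells/well and allowed to adhere overnight. Compound was added in 0.5% DMSO final for 48 h at 37° C. Viability was read by CellTiter-Glo luminescence, with the 50% viability-reducing concentration derived from dose-response curves.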

[2] = system: DLD1 cells (ATCC CCL-221); experiment: Cell viability assay 1 (CellTiter-Glo), DLD1 cells; type: cell-based; details: Homo sapiens, DLD-1 cells, 48 h, second value of the cell, read-out: Cell Viability DLD-1 (concentration that decreases cell viability by 50%)
In short: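 DLD1 cells grown in RPMI-1640 with 10% FCS, 2 mM L-glutamine, 37 °C, 5% CO2, plated overnight then exposed to compound (0.5% DMSO) for 48 h. Viability by CellTiter-Glo luminescence; value is concentration reducing viability by 50% from dose-response curves.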

[3] = molecular target: T1, GST-human KRas166 (G12V) GPPNHP (Homo sapiens, UniProt P01116, G12V); experiment: KRas small-molecule screening by SPR (Biacore T200); type: binding; details: compound 100 uM, 5% DMSO buffer; immobilised GST-KRas166 (G12V) GPPNHP
T1 construct: made in house; host or cells: E. coli C41(DE3)
In short: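 GST-KRas166 G12V loaded with GPPNHP, captured on anti-GST CM5 chip at 10,000–15,000 RU, GST reference channel. Compounds run at 100 uM in buffer with 100 mM NaCl, 5 mM MgCl2, 5% DMSO, with DMSO solvent correction; Rmax for 1:1 binding taken as 63 RU.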

IC50 [1] [µM] | IC50 [2] [µM] | SPR Response Units [3] [Response Units] | SMILES
18.3 | 11.1 | 114 | COc1nc(-c2cccc3c2OCCO3)ccc1Nc1cccc(C(=O)NCc2cc[nH]c(=O)c2)c1 [Example 165, 3-[6-(2,3-Dihydro-benzo[1,4]dioxin-5-yl)-2-methoxy-pyridin-3-ylamino]-N-(2-oxo-1,2-dihydro-pyridin-4-ylmethyl)-benzamide]
20.5 | 8.3 | 133 | COc1nc(-c2cccc3c2OCCO3)ccc1Nc1cccc(C(=O)NCC2CNC(=O)C2)c1 (stereo not drawn) [Example 166, 3-[6-(2,3-Dihydro-benzo[1,4]dioxin-5-yl)-2-methoxy-pyridin-3-ylamino]-N-(5-oxo-pyrrolidin-3-ylmethyl)-benzamide]
15.8 | 3.5 | 73 | COc1nc(-c2cccc3c2OCCO3)ccc1Nc1cccc(C(=O)NCC2CCN(C(C)=O)CC2)c1 [Example 167, N-(1-Acetyl-piperidin-4-ylmethyl)-3-[6-(2,3-dihydro-benzo[1,4]dioxin-5-yl)-2-methoxy-pyridin-3-ylamino]-benzamide]
13.6 | 2 | 284 | COc1nc(-c2cccc3c2OCCO3)ccc1Nc1ccc(CNCc2cc[nH]c(=O)c2)cc1 [Example 170, 4-({4-[6-(2,3-Dihydro-benzo[1,4]dioxin-5-yl)-2-methoxy-pyridin-3-ylamino]-benzylamino}-methyl)-1H-pyridin-2-one]
6.6 | 0.14 | 30 | COc1nc(-c2cccc3c2OCCO3)ccc1Nc1ccc(CNCC2CCN(C(=O)OC(C)(C)C)CC2)cc1 [Example 171, 4-({4-[6-(2,3-Dihydro-benzo[1,4]dioxin-5-yl)-2-methoxy-pyridin-3-ylamino]-benzylamino}-methyl)-piperidine-1-carboxylic acid tert-butyl ester]
23.3 | 4.7 | 174 | COc1nc(-c2cccc3c2OCCO3)ccc1Nc1ccc(CNCC2CCC(=O)NC2)cc1 (stereo not drawn) [Example 172, 5-({4-[6-(2,3-Dihydro-benzo[1,4]dioxin-5-yl)-2-methoxy-pyridin-3-ylamino]-benzylamino}-methyl)-piperidin-2-one]
7.4 | 4 | 147 | COc1nc(-c2cccc3c2OCCO3)ccc1Nc1ccc(CNCC2CNC(=O)C2)cc1 (stereo not drawn) [Example 173, 4-({4-[6-(2,3-Dihydro-benzo[1,4]dioxin-5-yl)-2-methoxy-pyridin-3-ylamino]-benzylamino}-methyl)-pyrrolidin-2-one]
15.8 | 8.2 | 63 | COc1nc(-c2cccc3c2OCCO3)ccc1Nc1ccc(C(=O)NCc2cccnc2)cc1 [Example 175, 4-[6-(2,3-Dihydro-benzo[1,4]dioxin-5-yl)-2-methoxy-pyridin-3-ylamino]-N-pyridin-3-ylmethyl-benzamide]
1.8 | 0.27 | 150 | COc1nc(-c2cccc3c2OCCO3)ccc1Nc1ccc(CNCC2CCNCC2)cc1 [Example 178, [6-(2,3-Dihydro-benzo[1,4]dioxin-5-yl)-2-methoxy-pyridin-3-yl]-(4-{[(piperidin-4-ylmethyl)-amino]-methyl}-phenyl)-amine]
7.5 | 0.39 | 162 | COc1nc(-c2cccc3c2OCCO3)ccc1Nc1ccc(C(=O)NCC2CCNCC2)cc1 [Example 179, 4-[6-(2,3-Dihydro-benzo[1,4]dioxin-5-yl)-2-methoxy-pyridin-3-ylamino]-N-piperidin-4-ylmethyl-benzamide]
8.6 | 0.65 | 197 | COc1nc(-c2cccc3c2OCCO3)ccc1Nc1cccc(C(=O)NCC2CCNCC2)c1 [Example 180, 3-[6-(2,3-Dihydro-benzo[1,4]dioxin-5-yl)-2-methoxy-pyridin-3-ylamino]-N-piperidin-4-ylmethyl-benzamide]
4.3 | 1.8 | 149 | COc1nc(-c2cccc3c2OCCO3)ccc1Nc1cccc(C(=O)NCC2CCN(Cc3ccccc3)CC2)c1 [Example 181, N-(1-Benzyl-piperidin-4-ylmethyl)-3-[6-(2,3-dihydro-benzo[1,4]dioxin-5-yl)-2-methoxy-pyridin-3-ylamino]-benzamide]
27 | 11.3 | 198 | COc1nc(-c2cccc3c2OCCO3)ccc1Nc1cccc(C(=O)NCC2CCNC(=O)C2)c1 (stereo not drawn) [Example 182, 3-[6-(2,3-Dihydro-benzo[1,4]dioxin-5-yl)-2-methoxy-pyridin-3-ylamino]-N-(2-oxo-piperidin-4-ylmethyl)-benzamide]
3.6 | 1.2 | 10 | NCc1ccc(C(=O)N2CCN(c3cccc4c3OCCO4)CC2)cc1 [Example 184, (4-Aminomethyl-phenyl)-[4-(2,3-dihydro-benzo[1,4]dioxin-5-yl)-piperazin-1-yl]-methanone]
2.4 | 1.2 | 122 | COc1nc(-c2cccc3c2OCCO3)ccc1Nc1ccc(C(=O)NCC2CCN(Cc3ccccc3)CC2)cc1 [Example 185, N-(1-Benzyl-piperidin-4-ylmethyl)-4-[6-(2,3-dihydro-benzo[1,4]dioxin-5-yl)-2-methoxy-pyridin-3-ylamino]-benzamide]
2.4 | 0.3 | 636 | COc1nc(-c2cccc3c2OCCO3)ccc1Nc1ccc(CNCC2CCN(C)CC2)cc1 [Example 186, [6-(2,3-Dihydro-benzo[1,4]dioxin-5-yl)-2-methoxy-pyridin-3-yl]-(4-{[(1-methyl-piperidin-4-ylmethyl)-amino]-methyl}-phenyl)-amine]
25.9 | 2.2 | 916 | COc1nc(-c2cccc3c2OCCO3)ccc1Nc1ccc(CNCC2CCN(Cc3ccccc3)CC2)cc1 [Example 187, (4-{[(1-Benzyl-piperidin-4-ylmethyl)-amino]-methyl}-phenyl)-[6-(2,3-dihydro-benzo[1,4]dioxin-5-yl)-2-methoxy-pyridin-3-yl]-amine]
27.4 | 49.5 | 103 | COc1nc(-c2cccc3c2OCCO3)ccc1Nc1ccc(CNCc2cccc(F)n2)cc1 [Example 188, [6-(2,3-Dihydro-benzo[1,4]dioxin-5-yl)-2-methoxy-pyridin-3-yl]-(4-{[(6-fluoro-pyridin-2-ylmethyl)-amino]-methyl}-phenyl)-amine]
44.9 | 1.4 | 552 | COc1nc(-c2cccc3c2OCCO3)ccc1Nc1cccc(CNCC2CCN(C)CC2)c1 [Example 189, [6-(2,3-Dihydro-benzo[1,4]dioxin-5-yl)-2-methoxy-pyridin-3-yl]-(3-{[(1-methyl-piperidin-4-ylmethyl)-amino]-methyl}-phenyl)-amine]
8.6 | 1.6 | 665 | COc1nc(-c2cccc3c2OCCO3)ccc1Nc1cccc(CNCC2CCN(Cc3ccccc3)CC2)c1 [Example 190, (3-{[(1-Benzyl-piperidin-4-ylmethyl)-amino]-methyl}-phenyl)-[6-(2,3-dihydro-benzo[1,4]dioxin-5-yl)-2-methoxy-pyridin-3-yl]-amine]
91.8 | 7.9 | 327 | COc1nc(-c2cccc3c2OCCO3)ccc1Nc1cccc(CNCC2CCN(C(C)=O)CC2)c1 [Example 191, 1-[4-({3-[6-(2,3-Dihydro-benzo[1,4]dioxin-5-yl)-2-methoxy-pyridin-3-ylamino]-benzylamino}-methyl)-piperidin-1-yl]-ethanone]
> 150 | 11.4 | 321 | COc1nc(-c2cccc3c2OCCO3)ccc1Nc1cccc(CNCC2CCC(=O)N2)c1 (stereo not drawn) [Example 192, 5-({3-[6-(2,3-Dihydro-benzo[1,4]dioxin-5-yl)-2-methoxy-pyridin-3-ylamino]-benzylamino}-methyl)-pyrrolidin-2-one]
52.5 | 14.8 | 388 | COc1nc(-c2cccc3c2OCCO3)ccc1Nc1cccc(CNCc2cc[nH]c(=O)c2)c1 [Example 193, 4-({3-[6-(2,3-Dihydro-benzo[1,4]dioxin-5-yl)-2-methoxy-pyridin-3-ylamino]-benzylamino}-methyl)-1H-pyridin-2-one]
> 150 | 11.2 | 359 | COc1nc(-c2cccc3c2OCCO3)ccc1Nc1cccc(CNCC2CCNC(=O)C2)c1 (stereo not drawn) [Example 194, 4-({3-[6-(2,3-Dihydro-benzo[1,4]dioxin-5-yl)-2-methoxy-pyridin-3-ylamino]-benzylamino}-methyl)-piperidin-2-one]
